In ChEMBL document CHEMBL4402568, “Antiepileptic Drug Carbamazepine Binds to a Novel Pocket on the Wnt Receptor Frizzled-8” (J Med Chem, 2020):
Activity calls are given as the source filed them. The calls are words filed in the database; no cut-off is given here.

How the values were obtained:
[1] = target: Frizzled-8 (Mus musculus) (UniProt Q61091); experiment: Binding affinity to immobilized mouse C-terminal Rhinovirus 3C cleavage site-fused 6xHis-tagged Frizzled-8 CRD (Q33 to G173 resideus) transfected with pDisplay_BirA-ER plasmid in HEK293T cells for biotinylation assessed as protein-compound complex formation at 5 to 50 uM by surface plasmon resonance assay
[2] = target: Frizzled-7 (Homo sapiens) (UniProt O75084); experiment: Binding affinity to immobilized human Frizzled-7 CRD (Q33 to G173 resideus) transfected with pDisplay_BirA-ER plasmid in HEK293T cells for biotinylation by surface plasmon resonance assay
[3] = target: Frizzled-8 (Mus musculus) (UniProt Q61091); conditions: 8 to 64 uM
Description: Inhibition of full length mouse Frizzled-8 transfected in Frizzled-1/2/7 knockout HEK293T cells using lentiviral expression system cotransfected with Renilla luciferase assessed as reduction in Wnt3a signaling by measuring luciferase activity at 8 to 64 uM measured after 24 hrs by Dual-Glo luciferase reporter assay

[4] = target: Frizzled-5 (Homo sapiens) (UniProt Q13467); experiment: Binding affinity to immobilized human Frizzled-5 CRD (P31 to Y150 resideus) transfected with pDisplay_BirA-ER plasmid in HEK293T cells for biotinylation by surface plasmon resonance assay
Sequence of Frizzled-5 (Homo sapiens) (Q13467 whole entry): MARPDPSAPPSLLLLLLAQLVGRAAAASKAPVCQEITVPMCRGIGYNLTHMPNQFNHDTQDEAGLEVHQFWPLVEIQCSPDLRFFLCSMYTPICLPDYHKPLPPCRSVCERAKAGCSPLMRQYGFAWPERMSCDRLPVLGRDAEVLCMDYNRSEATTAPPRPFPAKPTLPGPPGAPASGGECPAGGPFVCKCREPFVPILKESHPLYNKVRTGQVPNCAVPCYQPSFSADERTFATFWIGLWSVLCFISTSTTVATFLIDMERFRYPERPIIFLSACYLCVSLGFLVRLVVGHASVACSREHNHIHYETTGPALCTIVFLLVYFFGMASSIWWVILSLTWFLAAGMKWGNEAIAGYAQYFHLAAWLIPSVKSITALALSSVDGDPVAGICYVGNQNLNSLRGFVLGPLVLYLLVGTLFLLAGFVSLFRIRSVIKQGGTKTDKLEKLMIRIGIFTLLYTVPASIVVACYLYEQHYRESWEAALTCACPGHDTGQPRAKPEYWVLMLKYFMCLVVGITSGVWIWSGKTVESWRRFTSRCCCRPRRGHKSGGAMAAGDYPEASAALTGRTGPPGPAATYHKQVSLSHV

Sequence of Frizzled-8 (Mus musculus) (Q61091 whole entry, the tested form may be a part): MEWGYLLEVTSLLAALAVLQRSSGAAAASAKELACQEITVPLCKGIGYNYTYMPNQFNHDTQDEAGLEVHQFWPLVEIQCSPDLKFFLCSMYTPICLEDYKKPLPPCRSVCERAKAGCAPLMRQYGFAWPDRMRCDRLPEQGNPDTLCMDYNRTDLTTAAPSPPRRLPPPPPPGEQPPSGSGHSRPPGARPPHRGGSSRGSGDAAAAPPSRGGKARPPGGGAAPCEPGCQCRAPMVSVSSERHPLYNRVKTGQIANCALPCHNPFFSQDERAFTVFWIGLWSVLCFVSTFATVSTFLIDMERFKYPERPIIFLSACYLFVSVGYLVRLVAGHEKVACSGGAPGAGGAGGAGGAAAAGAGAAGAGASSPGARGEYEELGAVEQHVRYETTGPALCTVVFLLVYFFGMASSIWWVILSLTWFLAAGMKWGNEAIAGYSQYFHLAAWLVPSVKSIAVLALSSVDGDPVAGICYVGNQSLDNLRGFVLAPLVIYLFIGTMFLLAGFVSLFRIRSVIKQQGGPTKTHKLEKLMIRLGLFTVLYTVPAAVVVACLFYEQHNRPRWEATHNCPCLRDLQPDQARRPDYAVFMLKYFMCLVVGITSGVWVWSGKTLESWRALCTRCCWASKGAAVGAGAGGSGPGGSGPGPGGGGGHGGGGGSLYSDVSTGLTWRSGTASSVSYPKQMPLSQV

| Compound | Activity [1] | Activity [2] | inhibition [3] | Activity [4] |
| --- | --- | --- | --- | --- |
| CCN(CC)CCCC(C)Nc1c2ccc(Cl)cc2nc2ccc(OC)cc12 (stereo not given) | inactive | – | – | – |
| NC(=O)N1c2ccccc2C=Cc2ccccc21 | Active | inactive | Active | inactive |
